Measurements published in patent US5039665A, “Use of fructose-1,6-diphosphate for treating myocardial infarction” (priority 1990, dated 1991).
Where “and” joins values, the source holds several entries; their conditions need not be identical. Equal values may be shown once. Entries after “also recorded” stand apart in the source; their conditions may differ.

Experiments:
human WBC = assay: carbohydrate metabolism of human white blood cells in vitro; assay type: cell-based; settings: for ATP content: incubated at 37° Celsius
Protocol: The tests were also conducted to investigate the effect of FDP on white blood cells (WBC) on metabolism in vitro. […] It was experimentally assessed whether FDP can stimulate the carbohydrate metabolism of these cells at rest. A similar phenomenon observed for normal human erythrocytes, sickle cells and dog erythrocytes. From healthy humans and dogs, the white blood cells were separated and incubated at 37° Celsius for various periods of time with FDP, glucose and normal saline. At the end of incubation, ATP and intermediates of the glycolytic pathway were assessed. […] The pyruvic acid concentration in dog WBC incubated with FDP was 10 times greater than those incubated in glucose while those for the human WBC, this difference was of much lesser degree (X2). The dihydroxyacetone (DHA) in the human and canine WBC was 5 to 10 times greater in the FDP incubated than in the glucose ones.

[1] = test system: dogs subjected to toxic doses of Digoxin; assay: digoxin toxicity in dogs; assay type: in vivo, dog; settings: for hemodynamic parameters (cardiac output, arterial pressure): dog, in vivo
Protocol: Dogs subjected to toxic doses of Digoxin were treated with FDP and glucose. […] Also the dogs treated with FDP survived, while the controls treated with Dextrose 5% died within 3 hours after administration of Digoxin. In this paired study 10 anesthesized dogs received 3 mg. IV Digoxin as bolus injection. Five of the digs received 20 minutes after the digoxin injection 1 gm. of FDP and then on 2 mg/kg as a constant infusion for the next 3 hours. The five controls received in the same manner Dextrose 5%. […] (Pi<0.001.).

whole blood = assay: blood preservation: ATP content of refrigerated blood; design: species or system dog
Protocol: Blood specimens taken from a number of dogs were mixed with FDP in the following proportions: F1-25mg of FDP per 10ml of blood and F2-50mg of FDP per 10ml of blood. The same proportion was prepared with glucose: G1-25mg of glucose per 10ml of blood and G2-50mg of glucose per 10ml of blood. The blood specimens were refrigerated for 24 hours and then the blood was tested for ATP content after 24 hours 14 days.

erythrocytes = assay: incubation of erythrocytes: ATP and 2-3 DPG content; assay type: cell-based
Excerpt: To allow for a broader and more complete interpretation of the results, a small paragraph will be devoted to the ability of FDP to cross the cellular membranes.

[2] = test system: dogs subjected to hemorrhagic shock; assay: irreversible hemorrhagic shock in dogs (modified Wiggers technique, 35 mm Hg for 3 hours); assay type: in vivo, dog; settings: for survival after retransfusion: retransfused at three hours
Protocol: In the experiments regarding an irreversible hemorrhagic shock, results were obtained in the dog model using Wigger's modified technique. We compared a group of animals receiving IV administration of fructose-1,6-diphosphate (FDP) to a group receiving equimolar glucose.
The experiments were performed in b 25 pentobarbital anesthetized (30 mg/kg IV) mongrel dogs of both sexes. After induction of anesthesia the animals were […] and ventilated with a Harvard respiration pump with the use of ambient air. Secured in the left lateral decubitus position on the fluoroscopic table, a femoral artery was used to introduce a large bore polyethylene catheter which was connected to a 1.5 liter bottle elevated at 35 mm Hg above the atrial level. In the connecting system an external calibrated electromagnetic flow probe (Statham) was incorporated in order to follow the direction and amount of blood flow. The pressure in this system was monitored through a side opening with the aid of a Statham pressure gauge. The other femoral artery was percutaneously catheterized and a Judkins type pigtail catheter was advanced to the aortic root. In the course of the experiments this catheter was placed intermittently into the left ventricle when recordings were made. This set-up enable us to monitor both aortic and left ventricular pressures via a single catheter. The femoral vein on the side where the incision was made was catheterized as well as a superficial vein of the front limb transutaneously for administration of the FDP, glucose, heparin and supplemental anesthetic. Parameters such as aortic, ventricular and femoral pressures, and EKG were monitored on an Electronics for Medicine DR-8 recorder. Recording of these parameters was made every 15 min. Heparin ([…] initially and thereafter 3 mg/kg/2 hrs) and antibiotics were given to all animals that were allowed to recover. A control period of one hour was allowed prior to bleeding the animal. During this period two arterial blood samples were drawn for pH, pO2, pCO2, pCO2 combining power and lactic acid determinations. During the oliegemic phase four arterial samples were taken for determination of the same parameters described at 30 min, 1 hr, 2 hrs, and 2 hrs 45 min.
The blood from the animals was withdrawn via the femoral artery (50-55 ml/min) until the means arterial pressure dropped to 35 mm Hg and from then on the pressure was kept at this level for three hours. The protocol for evaluating the therapeutic effect of FDP was designed in the following manner. […] Both groups received an additional 500 mg IV bolus of FDP or glucose every 30 min for the duration of the oligemic phase. In five controls and six treated dogs the chest was opened at three hours and with the aid of a specially designed cutting tool that had been cooled in liquid nitrogen, frozen transmural sections from the left ventricle were taken for ATP, creatine phosphate (CP), FDP and lactic acid determinations. The remaining 14 animals (6 controls and 8 treated with FDP) were retransfused at three hours and allowed to recover.
The epicardium and endocardium from the frozen tissue were separated (while still frozen) and homogenized in 6% perchloric acid. The supernatant was used to determine ATP, CP and lactate. The ATP and creatine phosphate were assessed with the method described by Lamprecht (Lamprecht, W., and P. Stein. Methods of Enzymatic Analysis. Ed: H. V. Bergmeyer, New York, Academic Press, 1963, p. 610.) while lactate was measured by the method of Marback (Marback, E. P., and M. H. Weil. Rapid enzymatic measurement of blood lactate and pyruvate. Clin. Chem. 13: 314, 1967). Tissue content of FDP was assessed by the method of Bucher and Hohorst (Bucher, T., and H. J. Hohorst. Dihydroxyacetone phosphate, fructose 1-6 diphosphate and D-glyceraldehyde 3-phosphate. In. Methods of Enzymatic Analysis. Ed: Bermeyer, New York, Academic Press, 1963, pgs. 246-252.)

[3] = 25mg per 10ml of blood, 24 hours
[4] = 25mg per 10ml of blood, 48 hours
[5] = 25mg per 10ml of blood, 7 days, Incubate 30' 37°
[6] = 50mg per 10ml of blood, 24 hours
[7] = 50mg per 10ml of blood, 48 hours
[8] = 50mg per 10ml of blood, 7 days, Incubate 30' 37°

O=C[C@H](O)[C@@H](O)[C@H](O)[C@H](O)CO [glucose, reference compound]
ATP content (human WBC): 1.28±0.21 m.mole/#WBC
time to death ([1]; after administration of Digoxin): ≤ 3 h
hemodynamic parameters (cardiac output, arterial pressure) [1]: decline in arterial pressure, vomiting, and perfused diarrhea
ATP (whole blood; [3]): 0.22 m mole/ml
ATP (whole blood; [4]): 0.32 m mole/ml
ATP (whole blood; [5]): 0.28 m mole/ml
ATP (whole blood; 25mg per 10ml of blood, 9 days): 0.26 m mole/ml
ATP (whole blood; [6]): 0.44 m mole/ml
ATP (whole blood; [7]): 0.34 m mole/ml
ATP (whole blood; [8]): 0.18 m mole/ml
ATP (whole blood; 50mg per 10ml of blood, 9 days): 0.40 m mole/ml
ATP (whole blood; 14 days, Incubate 40' 37°): 0.88 m mole/ml
ATP (whole blood; 14 days, No incubation): 0.40 m mole/ml
ATP content in the erythrocytes (erythrocytes; equimolar, same conditions): failed to increase the ATP content
ischemic EKG changes in control (glucose) animals ([2]; 55 min to 1 hour 15 minutes after onset of shock): All control animals demonstrated ischemic EKG changes
creatine phosphate (CP) in the endocardium, less than normal ([2]; at three hours): 88%
creatine phosphate (CP) in the epicardium, less than normal ([2]; at three hours): 64%
endocardial ATP content, fall ([2]; at three hours): 50%
endocardial/epicardial tissue lactate ratio ([2]; at three hours): 1.52±0.21
ST elevation ([2]; maximum at 2 hours, precordial leads): 0.55±0.17 mV
survival after retransfusion [2]: All 6 control animals that were retransfused died within 24 hours

O=C(COP(=O)(O)O)[C@@H](O)[C@H](O)[C@H](O)COP(=O)(O)O [FDP, fructose-1,6-diphosphate]
effect on carbohydrate metabolism (human WBC): profound stimulating effect on the carbohydrate metabolism
concentration dependence of ATP production (human WBC; 5 to 50 mg/ml FDP, no AMP or ADP): independent of the concentration (from 5 to 50 mg/ml), but rather a function of the incubation time
concentration dependence of ATP increase (human WBC; AMP or ADP added): the increase of ATP becomes a function of the FDP concentration
ATP content (human WBC): 2.47±0.25 m.mole/#WBC
survival ([1]; 3 mg. IV Digoxin): survived
digitalis induced dysarhythmia ([1]; 3 mg. IV Digoxin, FDP 1 gm. then 2 mg/kg infusion for 3 hours): suppresses significantly the digitalis induced dysarhythmia
occurrence of dysarhythmia versus controls, significance ([1]; P < 0.001): significantly less in the group treated with FDP
hemodynamic parameters (cardiac output, arterial pressure) [1]: no alternation in hemodynamic parameters
ATP (whole blood; [3]): 2.32 m mole/ml
ATP (whole blood; [4]): 2.34 m mole/ml
ATP (whole blood; [5]): 0.70 m mole/ml
ATP (whole blood; 25mg per 10ml of blood, 9 days): 0.82 m mole/ml
ATP (whole blood; [6]): 3.34 m mole/ml
ATP (whole blood; [7]): 2.08 m mole/ml
ATP (whole blood; [8]): 2.16 m mole/ml
ATP (whole blood; 50mg per 10ml of blood, 9 days): 2.04 m mole/ml
ATP (whole blood; 14 days, Incubate 40' 37°): 1.3 m mole/ml
ATP (whole blood; 14 days, No incubation): 1.22 m mole/ml
ATP and 2-3 DPG in the erythrocytes (erythrocytes): substantial increase of ATP and 2-3 DPG in the erythrocytes
ATP and 2-3 DPG content in erythrocytes (erythrocytes; 5% FDP): large increase in their ATP and 2-3 DPG content
outcome of irreversible experimental hemorrhagic shock ([2]; 3 hour duration at 35mm Hg AP): could be successfully treated with FDP
mortality ([2]; FDP by IV administration): zero
creatine phosphate (CP) depletion ([2]; FIG. 4, epicardium and endocardium, 35 mm. Hg. for 3 hours): prevents depletion of creatine phosphate (CP) in both epicardium and endocardium
ATP content in the epicardium ([2]; FIG. 4, hypotension of 35 mm. Hg. for 3 hours, FDP vs controls): no significant difference in ATP content
myocardial contractility ([2]; Intravenous administration): improves the myocardial contractility
arterial plasma lactic acid, course after 2 hours ([2]; after 2 hours of hemorrhage): the plasma lactate continued to rise
heart rate return towards control ([2]; after retransfusion): returned faster towards control
ATP myocardial content ([2]; at three hours): normal ATP myocardial content and no transmural gradient
CP in the epicardium (in words) ([2]; at three hours): no deficit in the epicardium
creatine phosphate (CP) in the endocardium, less than normal ([2]; at three hours): 18%
endocardial/epicardial tissue lactate ratio ([2]; at three hours): 2.26 ±0.26
ATP and CP content in the myocardium / endocardium ([2]; dog, in vivo): restores ATP and CP content in the myocardium
ST elevation (in words) ([2]; dog, in vivo): only minimal elevation was observed in two animals
activity of glycolysis in the endocardium ([2]; dog, in vivo): restores the depressed activity of glycolysis in the endocardium
heart rate ([2]; dog, in vivo): < 200 beats/min
plasma lactate and myocardial tissue lactate ([2]; dog, in vivo): increased plasma lactate and myocardial tissue lactate
ATP and CP content in the myocardium / endocardium ([2]; dog, in vivo, listed as Fructose diphosphate): increased significantly the ATP and CP in the endocardium
plasma lactate ([2]; measured at 2 hrs 45 min after the onset of hypotension): 124±16 mg %
arterial pH ([2]; not exceptional in the group treated with FDP): ≤ 6.8
animals with spontaneous reversal of blood flow (from the bottle to the animal) ([2]; oligemic phase): only two of them reversed their flow
electrocardiographic (EKG) ischemic changes ([2]; oligemic phase): In both animals after FDP was given the ischemic changes disappeared; also recorded: prevents the EKG ischemic changes
electrocardiographic (EKG) ischemic changes ([2]; oligemic phase, listed as Fructose diphosphate): prevented electrocardiographic ischemic changes
survival after retransfusion [2]: All 8 dogs treated with FDP survived
renal and bowel function, neurological deficit ([2]; surviving dogs): normal renal and bowel function and no neurological deficit was noted
amount of blood uptake ([2]; two FDP animals with reversed flow): 24 % of the shed blood and 17 % of the shed blood
